Data as given in US7947706B2, “Substituted pyrrolopyridines, compositions containing them, manufacturing process therefor and use thereof” (Sanofi-Aventis Deutschland GmbH, priority 2005, dated 2011).

| Structure (SMILES) | melting point [°C] |
| --- | --- |
| NC(=O)c1[nH]c2cnccc2c1-c1ccc(NC(=O)Nc2ccc(C(F)(F)F)cc2)cc1 [Example 38, 3-{4-[3-(4-Trifluoromethylphenyl)ureido]phenyl}-1H-pyrrolo-[2,3-c]pyridine-2-carboxamide] | 289 |
| NC(=O)c1[nH]c2cnccc2c1-c1ccc(NC(=O)Nc2cccc(F)c2)cc1 [Example 48, 3-{4-[3-(3-Fluorophenyl)ureido]phenyl}-1H-pyrrolo[2,3-c]-pyridine-2-carboxamide] | 252 |
| NC(=O)c1[nH]c2cnccc2c1-c1ccc(NC(=O)Nc2cc(C(F)(F)F)ccc2Cl)cc1 [Example 41, 3-{4-[3-(2-Chloro-5-trifluoromethylphenyl)ureido]phenyl}-1H-pyrrolo[2,3-c]pyridine-2-carboxamide] | 243 |
| COc1ccc(C)cc1NC(=O)Nc1ccc(-c2c(C(N)=O)[nH]c3ncccc23)cc1 [Example 22, 3-{4-[3-(2-Methoxy-5-methylphenyl)ureido]phenyl}-1H-pyrrolo[2,3-b]pyridine-2-carboxamide] | 327.7 |
| COc1ccc(NC(=O)Nc2ccc(-c3c(C(N)=O)[nH]c4cnccc34)cc2)cc1 [Example 57, 3-{4-[3-(4-Methoxyphenyl)ureido]phenyl}-1H-pyrrolo[2,3-c]pyridine-2-carboxamide] | 275 |
| NC(=O)c1[nH]c2c(ccc[n+]2[O-])c1-c1ccc(NC(=O)Nc2cc(C(F)(F)F)ccc2F)cc1 [Example 8, 3-{4-[3-(2-Fluoro-5-trifluoromethylphenyl)ureido]phenyl}-7-oxy-1H-pyrrolo[2,3-b]pyridine-2-carboxamide] | 220 |
| Cc1ccc(NC(=O)Nc2ccc(-c3c(C(N)=O)[nH]c4ncccc34)cc2)cc1 [Example 25, 3-[4-(3-p-Tolylureido)phenyl]-1H-pyrrolo[2,3-b]pyridine-2-carboxamide] | 293 |
| COc1ccc(NC(=O)Nc2ccc(-c3c(C(N)=O)[nH]c4ncccc34)cc2)cc1OC [Example 17, 3-{4-[3-(3,4-Dimethoxyphenyl)ureido]phenyl}-1H-pyrrolo-[2,3-b]pyridine-2-carboxamide] | 223.7 |
| COc1ccccc1NC(=O)Nc1ccc(-c2c(C(N)=O)[nH]c3cnccc23)cc1 [Example 34, 3-{4-[3-(2-Methoxyphenyl)ureido]phenyl}-1H-pyrrolo[2,3-c]pyridine-2-carboxamide] | 216 |
| NC(=O)c1[nH]c2cnccc2c1-c1ccc(NC(=O)Nc2cc(F)cc(C(F)(F)F)c2)cc1 [Example 50, 3-{4-[3-(3-Fluoro-5-trifluoromethylphenyl)ureido]phenyl}-1H-pyrrolo[2,3-c]pyridine-2-carboxamide] | 261 |
| Cc1ccc(C)c(NC(=O)Nc2ccc(-c3c(C(N)=O)[nH]c4cnccc34)cc2)c1 [Example 46, 3-{4-[3-(2,5-Dimethylphenyl)ureido]phenyl}-1H-pyrrolo[2,3-c]pyridine-2-carboxamide] | 261 |
| COc1cc(NC(=O)Nc2ccc(-c3c(C(N)=O)[nH]c4cnccc34)cc2)cc(OC)c1 [Example 45, 3-{4-[3-(3,5-Dimethoxyphenyl)ureido]phenyl}-1H-pyrrolo-[2,3-c]pyridine-2-carboxamide] | 225 |
| COc1cccc(NC(=O)Nc2ccc(-c3c(C(N)=O)[nH]c4ncccc34)cc2)c1 [Example 19, 3-{4-[3-(3-Methoxyphenyl)ureido]phenyl}-1H-pyrrolo[2,3-b]-pyridine-2-carboxamide] | 306.2 |
| NC(=O)c1[nH]c2ncccc2c1-c1ccc(NC(=O)Nc2ccc(F)c(C(F)(F)F)c2)cc1 [Example 14, 3-{4-[3-(4-Fluoro-3-trifluoromethylphenyl)ureido]phenyl}-1H-pyrrolo[2,3-b]pyridine-2-carboxamide] | 234.7 |
| NC(=O)c1[nH]c2ncccc2c1-c1ccc(NC(=O)Nc2ccc(C(F)(F)F)cc2)cc1 [Example 11, 3-{4-[3-(4-Trifluoromethylphenyl)ureido]phenyl}-1H-pyrrolo-[2,3-b]pyridine-2-carboxamide] | 296.2 |
| COc1ccccc1NC(=O)Nc1ccc(-c2c(C(N)=O)[nH]c3ncccc23)cc1 [Example 10, 3-{4-[3-(2-Methoxyphenyl)ureido]phenyl}-1H-pyrrolo[2,3-b]-pyridine-2-carboxamide] | 227.1 |
| CCc1cccc(NC(=O)Nc2ccc(-c3c(C(N)=O)[nH]c4ncccc34)cc2)c1 [Example 61, 3-{4-[3-(3-Ethylphenyl)ureido]phenyl}-1H-pyrrolo[2,3-b]-pyridine-2-carboxamide] | 254 |
| NC(=O)c1[nH]c2cnccc2c1-c1ccc(NC(=O)Nc2ccc(OC(F)F)cc2)cc1 [Example 43, 3-{4-[3-(4-Difluoromethoxyphenyl)ureido]phenyl}-1H-pyrrolo[2,3-c]pyridine-2-carboxamide] | 257 |
| Cc1ccc(NC(=O)Nc2ccc(-c3c(C(N)=O)[nH]c4cnccc34)cc2)cc1C(F)(F)F [Example 52, 3-{4-[3-(4-Methyl-3-trifluoromethylphenyl)ureido]phenyl}-1H-pyrrolo[2,3-c]pyridine-2-carboxamide] | 199 |
| NC(=O)c1[nH]c2cnccc2c1-c1ccc(NC(=O)Nc2cccc(Cl)c2)cc1.O=C(O)C(F)(F)F | 221 |

| Structure (SMILES) | melting point [°C] |
| --- | --- |
| COc1ccc(C(F)(F)F)cc1NC(=O)Nc1ccc(-c2c(C(N)=O)[nH]c3ncccc23)cc1 [Example 32, 3-{4-[3-(2-Methoxy-5-trifluoromethylphenyl)ureido]phenyl}-1H-pyrrolo[2,3-b]pyridine-2-carboxamide] | 221 |
| NC(=O)c1[nH]c2ncccc2c1-c1ccc(NC(=O)Nc2cccc(C(F)(F)F)c2F)cc1 [Example 13, 3-{4-[3-(2-Fluoro-3-trifluoromethylphenyl)ureido]phenyl}-1H-pyrrolo[2,3-b]pyridine-2-carboxamide] | 265.4 |
| Cc1ccccc1NC(=O)Nc1ccc(-c2c(C(N)=O)[nH]c3cnccc23)cc1 [Example 56, 3-[4-(3-o-Tolylureido)phenyl]-1H-pyrrolo[2,3-c]pyridine-2-carboxamide] | 270 |
| Cc1cc(C)cc(NC(=O)Nc2ccc(-c3c(C(N)=O)[nH]c4cnccc34)cc2)c1 [Example 59, 3-{4-[3-(3,5-Dimethylphenyl)ureido]phenyl}-1H-pyrrolo[2,3-c]pyridine-2-carboxamide] | 188 |
| NC(=O)c1[nH]c2ncccc2c1-c1ccc(NC(=O)Nc2ccc(Cl)c(C(F)(F)F)c2)cc1 [Example 29, 3-{4-[3-(4-Chloro-3-trifluoromethylphenyl)ureido]phenyl}-1H-pyrrolo[2,3-b]pyridine-2-carboxamide] | 311.1 |
| NC(=O)c1[nH]c2cnccc2c1-c1ccc(NC(=O)Nc2ccc(F)c(C(F)(F)F)c2)cc1 [Example 51, 3-{4-[3-(4-Fluoro-3-trifluoromethylphenyl)ureido]phenyl}-1H-pyrrolo[2,3-c]pyridine-2-carboxamide] | 201 |
| NC(=O)c1[nH]c2ncccc2c1-c1ccc(NC(=O)Nc2cc(F)cc(C(F)(F)F)c2)cc1 [Example 15, 3-{4-[3-(3-Fluoro-5-trifluoromethylphenyl)ureido]phenyl}-1H-pyrrolo[2,3-b]pyridine-2-carboxamide] | 257.5 |
| NC(=O)c1[nH]c2cnccc2c1-c1ccc(NC(=O)Nc2ccc(F)cc2)cc1 [Example 37, 3-{4-[3-(4-Fluorophenyl)ureido]phenyl}-1H-pyrrolo[2,3-c]-pyridine-2-carboxamide] | 271 |
| NC(=O)c1[nH]c2cnccc2c1-c1ccc(NC(=O)Nc2ccc(Cl)c(C(F)(F)F)c2)cc1 [Example 40, 3-{4-[3-(4-Chloro-3-trifluoromethylphenyl)ureido]phenyl}-1H-pyrrolo[2,3-c]pyridine-2-carboxamide] | 228 |
| NC(=O)c1[nH]c2ncccc2c1-c1ccc(NC(=O)Nc2ccc(OC(F)F)cc2)cc1 [Example 27, 3-{4-[3-(4-Difluoromethoxyphenyl)ureido]phenyl}-1H-pyrrolo[2,3-b]pyridine-2-carboxamide] | 283.5 |
| NC(=O)c1[nH]c2cnccc2c1-c1ccc(NC(=O)Nc2ccc(F)c(Cl)c2)cc1.O=C(O)C(F)(F)F | 214 |
| Cc1ccc(NC(=O)Nc2ccc(-c3c(C(N)=O)[nH]c4ncccc34)cc2)cc1C [Example 21, 3-{4-[3-(3,4-Dimethylphenyl)ureido]phenyl}-1H-pyrrolo[2,3-b]pyridine-2-carboxamide] | 274.7 |
| NC(=O)c1[nH]c2ncccc2c1-c1ccc(NC(=O)Nc2ccc(F)cc2)cc1 [Example 24, 3-{4-[3-(4-Fluorophenyl)ureido]phenyl}-1H-pyrrolo[2,3-b]-pyridine-2-carboxamide] | 299.9 |
| NC(=O)c1[nH]c2ncccc2c1-c1ccc(NC(=O)Nc2ccc(OC(F)(F)F)cc2)cc1 [Example 16, 3-{4-[3-(4-Trifluoromethoxyphenyl)ureido]phenyl}-1H-pyrrolo[2,3-b]pyridine-2-carboxamide] | 258.9 |
| Cc1ccc(C)c(NC(=O)Nc2ccc(-c3c(C(N)=O)[nH]c4ncccc34)cc2)c1 [Example 18, 3-{4-[3-(2,5-Dimethylphenyl)ureido]phenyl}-1H-pyrrolo[2,3-b]pyridine-2-carboxamide] | 308.8 |
| Cc1ccc(NC(=O)Nc2ccc(-c3c(C(N)=O)[nH]c4cnccc34)cc2)cc1 [Example 39, 3-[4-(3-p-Tolylureido)phenyl]-1H-pyrrolo[2,3-c]pyridine-2-carboxamide] | 277 |
| NC(=O)c1[nH]c2cnccc2c1-c1ccc(NC(=O)Nc2ccccc2C(F)(F)F)cc1 [Example 35, 3-{4-[3-(2-Trifluoromethylphenyl)ureido]phenyl}-1H-pyrrolo[2,3-c]pyridine-2-carboxamide] | 228 |
| NC(=O)c1[nH]c2cnccc2c1-c1ccc(NC(=O)Nc2cccc(C(F)(F)F)c2)cc1 [Example 36, 3-{4-[3-(3-Trifluoromethylphenyl)ureido]phenyl}-1H-pyrrolo-[2,3-c]pyridine-2-carboxamide] | 256 |
| NC(=O)c1[nH]c2cnccc2c1-c1ccc(NC(=O)Nc2ccc(OC(F)(F)F)cc2)cc1 [Example 42, 3-{4-[3-(4-Trifluoromethoxyphenyl)ureido]phenyl}-1H-pyrrolo[2,3-c]pyridine-2-carboxamide] | 276 |
